Read-outs that look alike come from different tables or passages of the source.
Tests used:
PhKAT [1] = target: T1, PhKAT (Pyrococcus horikoshii, UniProt O57946); assay: KAT transaminase kinetics, KYNA production from KYN monitored at 332 nm; settings: 100 µM KYN; keto acid as amino acceptor
Description: KYNA production was monitored spectrophotometrically using a U-2810 UV–Vis spectrophotometer (Hitachi).
The transaminase abilities of KAT were assayed by measuring the rate of the KYNA production. […] KYNA production was monitored by the increase in A332 at 25°C. The quantities of KYNA were determined spectroscopically with an extinction coefficient of 9.8 mM^−1⋅cm^−1 at 332 nm.

PhKAT [2] = target: T1, PhKAT; assay: Isothermal titration calorimetry for cofactor and substrate binding; design: species or system Pyrococcus horikoshii OT3; settings: PLP binding to PhKAT; judged from shape of binding curve
Text: To avoid air bubbles, we degassed solutions under vacuum before use. […] Power peaks were integrated, and the resultant reaction […] were plotted against the molar cofactor and/or substrate/protein ratios and fitted using the “sequential binding sites” model according to the manufacturer's instructions with origin version 5.0 (MicroCal Software), thus yielding the dissociation constant K d.

PhKAT [3] = target: T1, PhKAT; assay: Spectrophotometric titration of PhKAT with PLP (absorbance change at 360 nm, 2-site binding model with hill slopes); design: species or system Pyrococcus horikoshii OT3; settings: 25°C
Description: PhKAT was added to a 20 µM (final concentration) PLP solution in a final volume of 500 µL of 50 mM HEPES–NaOH buffer (pH 7.5) containing 100 mM NaCl. Titration of PhKAT with PLP was monitored by absorption spectroscopy. Aliquots of PLP (1, 2, 4, 8, 16, 32, and 64 µM) were added to the cuvette containing PhKAT at 25°C. Spectra were recorded after the addition of PLP, and the PLP-binding constant (K d) was calculated from the difference in absorbance at 360 nm, and the PLP-binding curve for PhKAT was obtained by the 2-site binding model with variable slopes using prism5.

[4] = substrate: CCC(=O)C(=O)O; assay: purified protein, by the assay type; settings: other: 100 µM KYN; keto acid as amino acceptor; pH 7.5; 25.0 °C
Description: (§1) PLP-dependent KAT activity was assayed in 500 µL of 50 mM HEPES–NaOH buffer (pH 7.5) containing 100 mM NaCl, 10 µM PhKAT, 15 µM PLP, 20 µM KYN, and 64 µM 2OG. Assays were performed at room temperature (25°C), and the reaction was initiated by the addition of 2OG. KYNA production was monitored spectrophotometrically using a U-2810 UV–Vis spectrophotometer (Hitachi).
(§2) The transaminase abilities of KAT were assayed by measuring the rate of the KYNA production. In a total volume of 500 µL, the reaction mixture contained 10 µM PhKAT (dimer: 5 µM); 12 µM PLP; 0.08, 0.1, 0.4, 0.8, 1, 1.2, 2, 4, 6, 8, 12, 16, 20 and 24 µM 2OG; 0.02, 0.08, 0.1, 0.4, 0.8, 1, 1.2, 2, 4, 6, 8, 12, 16, 20 and 24 µM OXA; 50, or 100 µM KYN; 50 mM HEPES–NaOH buffer (pH 7.5); 100 mM NaCl; 0.4, 0.8, 1, 4, 8, 12 and 16 µM α-KMB, and/or 0.4, 0.8, 1, 4, 8, 12, 16 and 20 µM α-KBA. KYNA production was monitored by the increase in A332 at 25°C. The quantities of KYNA were determined spectroscopically with an extinction coefficient of 9.8 mM^−1⋅cm^−1 at 332 nm.

[5] = substrate: CSCCC(=O)C(=O)O; assay: purified protein, by the assay type; settings: other: 100 µM KYN; keto acid as amino acceptor; pH 7.5; 25.0 °C
Description: as §1, §2

[6] = target: the molecule itself; assay: crystal structure; co-crystals of PhKAT with PLP (1:1), PLP and 2OG (1:1:1 or 1:1:2), sitting-drop vapor diffusion at 4°C; space group C2, two chains in the asymmetric unit

## CSCCC(=O)C(=O)O [α-KMB, α-keto-γ-(methylthio) butyric acid]
PhKAT [1]
  H-value (allosteric sigmoidal model): 3.57

## Cc1ncc(COP(=O)(O)O)c(C=O)c1O [PLP, Pyridoxal phosphate]
PhKAT [2]
  dissociation constant (apparent) of second binding site in PhKAT: approximately femtomole order
PhKAT [3]; 10 µM PhKAT, pH 7.5, read-out: Kd1 (dissociation constant for PLP, first binding site)
  Kd: 25.5 µM
PhKAT [3]; 10 µM PhKAT, pH 7.5, read-out: Kd2 (dissociation constant for PLP, second binding site)
  Kd: 1.77 µM
PhKAT [3]; 20 µM PhKAT, pH 7.5, read-out: Kd1 (dissociation constant for PLP, first binding site)
  Kd: 9.65 µM
PhKAT [3]; 20 µM PhKAT, pH 7.5, read-out: Kd2 (dissociation constant for PLP, second binding site)
  Kd: 1.92 µM

## CCC(=O)C(=O)O [α-KBA, 2-ketobutyric acid]
PhKAT [1]
  H-value (allosteric sigmoidal model): 1.79

B1: PhKAT (Pyrococcus horikoshii OT3) (protein)
chain: MHEDVQLNIYVHSQEGIGMEENIKSMLGDVERFFSKKALEMRASEVRELLKLVETSDIISLAGGLPNPKTFPKEIIRDILVEIMEKYADKALQYGTTKGFTPLRETLMKWLGKRYGISQDNDIMITSGSQQALDLIGRVFLNPGDIVVVEAPTYLAALQAFNFYEPQYIQIPLDDEGMKVEILEEKLKELKSQGKKVKVVYTVPTFQNPAGVTMNEDRRKYLLELASEYDFIVVEDDPYGELRYSGNPEKKIKALDNEGRVIYLGTFSKILAPGFRIGWMVGDPGIIRKMEIAKQSTDLCTNVFGQVVAWRYVDGGYLEKHIPEIRKFYKPRRDAMLEALEEFMPEGVKWTKPEGGMFIWVTLPDGIDSKKMLERAIKKGVAYVPGEAFYAHRDVKNTMRLNFTYVDEDKIMEGIKRLAETIKEELKA
[4]
  Km: 1.73 µM
[5]
  Km: 2.41 µM

B2: Kynurenine aminotransferase from Pyrococcus horikoshii OT3 (enzyme, UniProt O57946 1-428, looked up)
chain: MHEDVQLNIYVHSQEGIGMEENIKSMLGDVERFFSKKALEMRASEVRELLKLVETSDIISLAGGLPNPKTFPKEIIRDILVEIMEKYADKALQYGTTKGFTPLRETLMKWLGKRYGISQDNDIMITSGSQQALDLIGRVFLNPGDIVVVEAPTYLAALQAFNFYEPQYIQIPLDDEGMKVEILEEKLKELKSQGKKVKVVYTVPTFQNPAGVTMNEDRRKYLLELASEYDFIVVEDDPYGELRYSGNPEKKIKALDNEGRVIYLGTFSKILAPGFRIGWMVGDPGIIRKMEIAKQSTDLCTNVFGQVVAWRYVDGGYLEKHIPEIRKFYKPRRDAMLEALEEFMPEGVKWTKPEGGMFIWVTLPDGIDSKKMLERAIKKGVAYVPGEAFYAHRDVKNTMRLNFTYVDEDKIMEGIKRLAETIKEELKA
modifications: PLP in a Schiff-base link with Lys269
notes: Kynurenine aminotransferase (PhKAT) of Pyrococcus horikoshii OT3, 428 residues; residues 25-428 seen in the crystal structures, residues 1-24 and the N-terminal His-tag disordered; also called PhKAT; KAT; source: E. coli BL21-CodonPlus (DE3), pET28a-PhKAT, purified (His TALON cartridge); not shown: His6, N-terminal, kept
[6]
  stoichiometry N: 2
